Measured values published in US20170008888A1 (KYORIN PHARMACEUTICAL CO., LTD., priority 2014, published 2017).

How the values were obtained:
Assay type in all cases: binding
AurA = molecular target: T1, AurA (Homo sapiens, UniProt O14965); assay: Probe-based (AX9989) kinase profiling in Jurkat lysate: AurA; conditions: read-out: Kinase inhibition % at indicated screening concentration: AurA; for inhibition at 1 µM: screening concentration 1.0 μM; for inhibition at 0.1 µM: screening concentration 0.1 μM
T1 construct: screened for activity against several kinases in Jurkat cells; endogenous in cells; host or cells: Jurkat cell lysate
T1 sequence (O14965 1-403): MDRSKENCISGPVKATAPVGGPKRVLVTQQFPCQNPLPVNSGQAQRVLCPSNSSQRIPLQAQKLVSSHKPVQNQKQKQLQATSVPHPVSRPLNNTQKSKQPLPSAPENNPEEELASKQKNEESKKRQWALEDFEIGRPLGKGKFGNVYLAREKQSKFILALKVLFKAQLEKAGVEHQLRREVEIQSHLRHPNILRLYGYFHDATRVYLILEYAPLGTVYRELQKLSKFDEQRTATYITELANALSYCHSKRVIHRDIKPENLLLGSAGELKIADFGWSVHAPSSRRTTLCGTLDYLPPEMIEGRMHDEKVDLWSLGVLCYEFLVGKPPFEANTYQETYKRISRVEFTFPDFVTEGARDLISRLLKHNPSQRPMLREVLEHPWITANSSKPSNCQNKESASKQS
Method in brief: (§1)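 Jurkat lysate, HEPES pH 7.5 buffer + 20 mM MnCl2; cpd 15 min RT; AX9989 ATP probe 5 μM final, RT. Trypsin digest, streptavidin capture, LC/MS; % inhibition vs vehicle from labeled-peptide signal.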

AurB or AurC = assay: Probe-based (AX9989) kinase profiling in Jurkat lysate: AurB or AurC
Method in brief: as §1

AMPKa1 or AMPKa2 = assay: Probe-based (AX9989) kinase profiling in Jurkat lysate: AMPKa1 or AMPKa2
Method in brief: as §1

ABL or ARG = assay: Probe-based (AX9989) kinase profiling in Jurkat lysate: ABL or ARG
Method in brief: as §1

JAK1 = molecular target: T2, JAK1 (Homo sapiens, UniProt P23458); assay: Probe-based (AX9989) kinase profiling in Jurkat lysate: JAK1; conditions: read-out: Kinase inhibition % at indicated screening concentration: JAK1; for inhibition at 1 µM: screening concentration 1.0 μM; for inhibition at 0.1 µM: screening concentration 0.1 μM
T2 construct: screened for activity against several kinases in Jurkat cells; endogenous in cells; host or cells: Jurkat cell lysate
Method in brief: as §1

TAO2 = molecular target: T3, TAO2 (Homo sapiens, UniProt Q9UL54); assay: Probe-based (AX9989) kinase profiling in Jurkat lysate: TAO2; conditions: read-out: Kinase inhibition % at indicated screening concentration: TAO2; for inhibition at 1 µM: screening concentration 1.0 μM; for inhibition at 0.1 µM: screening concentration 0.1 μM
T3 construct: screened for activity against several kinases in Jurkat cells; endogenous in cells; host or cells: Jurkat cell lysate
T3 sequence (Q9UL54 1-1235): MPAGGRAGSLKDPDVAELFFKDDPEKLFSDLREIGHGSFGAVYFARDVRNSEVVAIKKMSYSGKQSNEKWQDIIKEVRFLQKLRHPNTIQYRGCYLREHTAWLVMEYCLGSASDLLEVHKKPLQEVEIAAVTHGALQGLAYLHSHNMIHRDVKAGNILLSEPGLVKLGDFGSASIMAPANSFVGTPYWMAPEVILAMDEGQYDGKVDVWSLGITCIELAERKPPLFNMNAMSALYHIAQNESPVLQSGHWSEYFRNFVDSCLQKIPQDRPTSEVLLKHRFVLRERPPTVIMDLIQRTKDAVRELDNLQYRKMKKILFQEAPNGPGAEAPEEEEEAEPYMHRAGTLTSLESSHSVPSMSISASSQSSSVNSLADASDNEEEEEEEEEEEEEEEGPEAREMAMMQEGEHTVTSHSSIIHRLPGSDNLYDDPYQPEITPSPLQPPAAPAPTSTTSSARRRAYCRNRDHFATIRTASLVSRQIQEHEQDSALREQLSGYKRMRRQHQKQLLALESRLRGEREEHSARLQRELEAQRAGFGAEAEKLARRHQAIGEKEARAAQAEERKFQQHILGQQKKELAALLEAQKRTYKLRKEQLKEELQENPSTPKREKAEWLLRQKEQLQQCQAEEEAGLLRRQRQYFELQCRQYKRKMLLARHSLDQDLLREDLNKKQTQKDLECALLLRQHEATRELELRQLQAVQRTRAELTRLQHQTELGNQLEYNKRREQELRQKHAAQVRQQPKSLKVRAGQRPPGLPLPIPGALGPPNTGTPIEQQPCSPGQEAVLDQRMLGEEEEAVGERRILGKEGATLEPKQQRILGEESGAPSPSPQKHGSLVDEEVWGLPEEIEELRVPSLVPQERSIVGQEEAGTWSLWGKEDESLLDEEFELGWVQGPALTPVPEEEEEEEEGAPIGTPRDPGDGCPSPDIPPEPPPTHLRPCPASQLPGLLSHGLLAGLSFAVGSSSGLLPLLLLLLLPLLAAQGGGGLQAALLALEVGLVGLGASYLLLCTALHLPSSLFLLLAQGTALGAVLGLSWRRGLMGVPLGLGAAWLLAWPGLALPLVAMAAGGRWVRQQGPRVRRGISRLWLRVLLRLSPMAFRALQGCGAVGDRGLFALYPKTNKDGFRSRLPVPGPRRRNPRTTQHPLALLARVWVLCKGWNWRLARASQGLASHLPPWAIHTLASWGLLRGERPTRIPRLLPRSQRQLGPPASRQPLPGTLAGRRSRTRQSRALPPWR
Method in brief: as §1

ERK5 = molecular target: T4, ERK5 (Homo sapiens, UniProt Q13164); assay: Probe-based (AX9989 acyl phosphate ATP probe) kinase profiling in Jurkat lysate: ERK5; conditions: for IC50: calculated from percent inhibition of AX9989 labeling and the screening concentration, Jurkat lysate; for inhibition at 1 µM: screening concentration 1.0 μM; for inhibition at 1 µM / inhibition at 0.1 µM: read-out: Kinase inhibition % at indicated screening concentration: ERK5; for inhibition at 0.1 µM: screening concentration 0.1 μM
T4 construct: screened for activity against several kinases in Jurkat cells; endogenous in cells; host or cells: Jurkat cell lysate
Method in brief: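 Gel-filtered Jurkat lysate (5 mg/ml, 20 mM MnCl2) preincubated 15 min at room temperature with compound, then labelled with 5 μM AX9989 acyl phosphate ATP probe. Probe-labelled ERK5 active-site peptides quantified by LC/MS after trypsin digestion and streptavidin capture; IC50 calculated from percent inhibition at the screening concentration.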

ACK = molecular target: T5, ACK (Homo sapiens, UniProt Q07912); assay: Probe-based (AX9989) kinase profiling in Jurkat lysate: ACK; conditions: read-out: Kinase inhibition % at indicated screening concentration: ACK; for inhibition at 1 µM: screening concentration 1.0 μM; for inhibition at 0.1 µM: screening concentration 0.1 μM
T5 construct: screened for activity against several kinases in Jurkat cells; endogenous in cells; host or cells: Jurkat cell lysate
Method in brief: as §1

[1] = molecular target: T6, BRD4 bromodomain domain I [BRD4(1)] (Homo sapiens, UniProt O60885); assay: BRD4 bromodomain domain 1 inhibition assay (TR-FRET); conditions: screening concentration 10 μM
T6 construct: BRD4 bromodomain domain I [BRD4(1)]; purchased Cayman Chemicals
Method: The inhibitory activity of test compounds on the bromodomain, BRD4 bromodomain domain I [BRD4(1)], were determined via TR-FRET after a slight modification of the manufacturer's protocol (Cayman Chemicals, Ann Arbor, Mich.). Briefly, compounds were diluted to a 20× ([…]) concentration in DMSO. 100 nL of 20× compounds were then dry stamped into triplicate wells of black, low volume 384 well plates (Aurora Biotechnologies, Carlsbad, Calif.) using the Mosquito liquid handler (TPP Labtech, Melbourn, UK). 20× compounds were then diluted to a 4× (40 μM) concentration in Assay Buffer to result in 2% DMSO content. […] JQ1 at 10 μM or 0.5% DMSO final concentrations were used as the positive and negative controls, respectively, to set the assay window. The fluorescence was read in a time-resolved format on the Biotec Synergy 2 plate reader by exciting the signal at 340 nm and reading emissions at 620 and 670, using a 100 μs delay and 200 μs read window. […] Briefly, TR-FRET ratio values were normalized to the average TR-FRET ratio value given by 10 μM JQ1. […]

T5 sequence (Q07912 whole entry): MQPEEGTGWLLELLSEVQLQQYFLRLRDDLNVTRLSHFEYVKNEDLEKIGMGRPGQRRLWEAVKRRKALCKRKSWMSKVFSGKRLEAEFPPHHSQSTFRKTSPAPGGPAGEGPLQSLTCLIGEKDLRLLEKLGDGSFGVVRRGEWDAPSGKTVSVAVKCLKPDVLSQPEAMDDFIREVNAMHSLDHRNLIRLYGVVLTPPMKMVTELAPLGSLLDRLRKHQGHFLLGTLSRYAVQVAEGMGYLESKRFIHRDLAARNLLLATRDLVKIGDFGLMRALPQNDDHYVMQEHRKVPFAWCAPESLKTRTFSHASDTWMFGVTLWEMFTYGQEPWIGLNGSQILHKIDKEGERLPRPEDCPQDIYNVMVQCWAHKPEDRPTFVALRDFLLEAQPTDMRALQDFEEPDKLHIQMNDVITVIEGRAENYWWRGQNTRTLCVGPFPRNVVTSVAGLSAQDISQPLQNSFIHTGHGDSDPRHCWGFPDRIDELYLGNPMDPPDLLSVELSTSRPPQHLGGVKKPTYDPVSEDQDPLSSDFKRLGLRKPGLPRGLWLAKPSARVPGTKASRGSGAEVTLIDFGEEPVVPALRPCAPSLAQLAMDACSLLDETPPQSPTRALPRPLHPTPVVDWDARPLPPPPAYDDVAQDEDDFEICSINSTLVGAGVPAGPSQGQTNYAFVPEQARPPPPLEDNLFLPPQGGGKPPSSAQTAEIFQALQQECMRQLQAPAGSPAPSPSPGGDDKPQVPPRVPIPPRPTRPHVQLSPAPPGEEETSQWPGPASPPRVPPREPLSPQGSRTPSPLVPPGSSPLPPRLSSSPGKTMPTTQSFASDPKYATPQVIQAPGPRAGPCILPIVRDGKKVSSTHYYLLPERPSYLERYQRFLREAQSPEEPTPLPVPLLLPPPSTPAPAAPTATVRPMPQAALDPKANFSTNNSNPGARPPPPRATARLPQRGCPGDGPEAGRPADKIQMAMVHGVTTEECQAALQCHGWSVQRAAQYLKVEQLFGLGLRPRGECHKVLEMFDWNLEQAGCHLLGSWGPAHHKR
T2 sequence (P23458 whole entry): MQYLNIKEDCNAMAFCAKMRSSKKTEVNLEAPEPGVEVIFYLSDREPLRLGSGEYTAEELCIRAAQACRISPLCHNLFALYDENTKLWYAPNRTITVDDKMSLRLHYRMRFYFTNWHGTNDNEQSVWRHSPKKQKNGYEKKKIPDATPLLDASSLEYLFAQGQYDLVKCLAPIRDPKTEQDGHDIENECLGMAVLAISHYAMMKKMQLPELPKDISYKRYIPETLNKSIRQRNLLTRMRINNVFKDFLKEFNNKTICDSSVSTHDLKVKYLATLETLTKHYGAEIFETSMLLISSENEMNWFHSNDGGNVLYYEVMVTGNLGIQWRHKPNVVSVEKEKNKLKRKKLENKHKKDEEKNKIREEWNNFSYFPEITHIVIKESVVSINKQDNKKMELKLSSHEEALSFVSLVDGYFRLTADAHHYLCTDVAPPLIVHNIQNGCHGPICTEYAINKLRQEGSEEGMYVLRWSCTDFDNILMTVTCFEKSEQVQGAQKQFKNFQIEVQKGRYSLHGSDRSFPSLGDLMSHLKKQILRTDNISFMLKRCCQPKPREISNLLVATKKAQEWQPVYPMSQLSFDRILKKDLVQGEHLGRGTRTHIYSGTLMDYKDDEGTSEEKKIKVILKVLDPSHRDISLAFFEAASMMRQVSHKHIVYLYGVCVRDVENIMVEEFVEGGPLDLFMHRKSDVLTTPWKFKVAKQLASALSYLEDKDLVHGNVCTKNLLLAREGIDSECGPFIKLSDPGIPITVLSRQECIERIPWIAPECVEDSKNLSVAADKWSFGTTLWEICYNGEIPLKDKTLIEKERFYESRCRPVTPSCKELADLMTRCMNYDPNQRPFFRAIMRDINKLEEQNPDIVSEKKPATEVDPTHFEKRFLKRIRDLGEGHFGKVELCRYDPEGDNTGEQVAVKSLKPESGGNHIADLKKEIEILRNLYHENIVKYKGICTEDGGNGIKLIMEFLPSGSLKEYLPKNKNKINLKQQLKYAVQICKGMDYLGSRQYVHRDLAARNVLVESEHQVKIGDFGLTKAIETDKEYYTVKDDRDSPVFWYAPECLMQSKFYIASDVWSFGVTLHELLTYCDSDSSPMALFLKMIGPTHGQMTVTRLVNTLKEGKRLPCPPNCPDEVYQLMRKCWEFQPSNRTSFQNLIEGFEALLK
T4 sequence (Q13164 whole entry): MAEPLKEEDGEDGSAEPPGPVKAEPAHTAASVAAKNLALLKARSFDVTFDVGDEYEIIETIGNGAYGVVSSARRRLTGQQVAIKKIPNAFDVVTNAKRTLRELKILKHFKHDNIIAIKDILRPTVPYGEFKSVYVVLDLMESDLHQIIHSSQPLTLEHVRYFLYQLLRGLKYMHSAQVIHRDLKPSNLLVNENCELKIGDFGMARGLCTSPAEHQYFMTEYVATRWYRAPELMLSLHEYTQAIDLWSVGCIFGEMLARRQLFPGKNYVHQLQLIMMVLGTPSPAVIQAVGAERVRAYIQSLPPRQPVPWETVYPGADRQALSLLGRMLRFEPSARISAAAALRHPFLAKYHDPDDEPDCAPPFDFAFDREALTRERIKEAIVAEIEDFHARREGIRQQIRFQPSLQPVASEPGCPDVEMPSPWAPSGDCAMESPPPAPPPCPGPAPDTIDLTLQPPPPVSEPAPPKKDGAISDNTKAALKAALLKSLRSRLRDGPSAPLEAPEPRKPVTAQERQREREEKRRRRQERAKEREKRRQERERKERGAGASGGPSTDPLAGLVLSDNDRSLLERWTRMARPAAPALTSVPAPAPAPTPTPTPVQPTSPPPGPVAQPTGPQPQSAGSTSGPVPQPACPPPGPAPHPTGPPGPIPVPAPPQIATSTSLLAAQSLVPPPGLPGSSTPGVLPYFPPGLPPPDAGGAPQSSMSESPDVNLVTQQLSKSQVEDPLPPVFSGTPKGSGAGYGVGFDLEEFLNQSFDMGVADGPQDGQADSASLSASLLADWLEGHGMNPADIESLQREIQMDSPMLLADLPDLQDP

Compound	inhibition at 1 µM (AurA)	Kinase inhibition % at indicated screening concentration: AurB or AurC (AurB or AurC; screening concentration 1.0 μM)	Kinase inhibition % at indicated screening concentration: AMPKa1 or AMPKa2 (AMPKa1 or AMPKa2; screening concentration 1.0 μM)	Kinase inhibition % at indicated screening concentration: ABL or ARG (ABL or ARG; screening concentration 1.0 μM)	inhibition at 1 µM (JAK1)	inhibition at 1 µM (TAO2)	IC50 (ERK5)	inhibition at 1 µM (ERK5)	inhibition at 1 µM (ACK)	inhibition at 10 µM [1]	inhibition at 0.1 µM (AurA)	Kinase inhibition % at indicated screening concentration: AurB or AurC (AurB or AurC; screening concentration 0.1 μM)	Kinase inhibition % at indicated screening concentration: AMPKa1 or AMPKa2 (AMPKa1 or AMPKa2; screening concentration 0.1 μM)	Kinase inhibition % at indicated screening concentration: ABL or ARG (ABL or ARG; screening concentration 0.1 μM)	inhibition at 0.1 µM (JAK1)	inhibition at 0.1 µM (TAO2)	inhibition at 0.1 µM (ERK5)	inhibition at 0.1 µM (ACK)
CCOc1cc(C(=O)NC(CO)CO)ccc1Nc1cc2c(cn1)N(C)C(=O)c1ccccc1N2C [Compound 48]	≤ 35%	E (E is ≦35%)	E (E is ≦35%)	E (E is ≦35%)	≤ 35%	≤ 35%	101 to 500 nM	50 to 75%	≤ 35%	< 70%	–	–	–	–	–	–	–	–
COc1c(Nc2cc3c(cn2)N(C)C(=O)c2ccccc2N3C)cccc1C(=O)N1CCNCC1 [Compound 78]	≤ 35%	E (E is ≦35%)	E (E is ≦35%)	E (E is ≦35%)	≤ 35%	≤ 35%	> 500 nM	50 to 75%	≤ 35%	70 to 85%	–	–	–	–	–	–	–	–
COc1cc(C(=O)N2CCC(N(C)C)C2)c(F)cc1Nc1cc2c(cn1)N(C)C(=O)c1ccccc1N2C (stereo not shown) [Compound 90]	–	–	–	–	–	–	101 to 500 nM	–	–	< 70%	≤ 35%	E (E is ≦35%)	E (E is ≦35%)	E (E is ≦35%)	≤ 35%	≤ 35%	≤ 35%	≤ 35%
CN1CCC(c2ccc(Nc3cc4c(cn3)N(C)C(=O)c3ccccc3N4C)cc2)CC1 [Compound 92]	≤ 35%	C (C is >50% to ≦75%)	E (E is ≦35%)	E (E is ≦35%)	35 to 50%	50 to 75%	≤ 50 nM	> 90%	≤ 35%	70 to 85%	–	–	–	–	–	–	–	–
CCOc1cc(C(=O)N2CCCC(N)C2)ccc1Nc1cc2c(cn1)N(C)C(=O)c1occc1N2C (stereo not shown) [Compound 113]	–	–	–	–	–	–	≤ 50 nM	–	–	> 85%	≤ 35%	E (E is ≦35%)	E (E is ≦35%)	E (E is ≦35%)	≤ 35%	≤ 35%	> 90%	≤ 35%

Second part, the compound after the results:

inhibition at 1 µM (AurA)	Kinase inhibition % at indicated screening concentration: AurB or AurC (AurB or AurC; screening concentration 1.0 μM)	Kinase inhibition % at indicated screening concentration: AMPKa1 or AMPKa2 (AMPKa1 or AMPKa2; screening concentration 1.0 μM)	Kinase inhibition % at indicated screening concentration: ABL or ARG (ABL or ARG; screening concentration 1.0 μM)	inhibition at 1 µM (JAK1)	inhibition at 1 µM (TAO2)	IC50 (ERK5)	inhibition at 1 µM (ERK5)	inhibition at 1 µM (ACK)	inhibition at 10 µM [1]	inhibition at 0.1 µM (AurA)	Kinase inhibition % at indicated screening concentration: AurB or AurC (AurB or AurC; screening concentration 0.1 μM)	Kinase inhibition % at indicated screening concentration: AMPKa1 or AMPKa2 (AMPKa1 or AMPKa2; screening concentration 0.1 μM)	Kinase inhibition % at indicated screening concentration: ABL or ARG (ABL or ARG; screening concentration 0.1 μM)	inhibition at 0.1 µM (JAK1)	inhibition at 0.1 µM (TAO2)	inhibition at 0.1 µM (ERK5)	inhibition at 0.1 µM (ACK)	Compound
≤ 35%	E (E is ≦35%)	E (E is ≦35%)	E (E is ≦35%)	≤ 35%	≤ 35%	> 500 nM	35 to 50%	≤ 35%	< 70%	–	–	–	–	–	–	–	–	CN1C(=O)c2ccccc2N(C)c2cc(N[C@H]3CC[C@H](Nc4ncccn4)CC3)ncc21 [Compound 47]
≤ 35%	E (E is ≦35%)	E (E is ≦35%)	E (E is ≦35%)	≤ 35%	≤ 35%	101 to 500 nM	75 to 90%	≤ 35%	< 70%	–	–	–	–	–	–	–	–	CN1C(=O)c2ccccc2N(C)c2cc(NC3CCC(N)CC3)ncc21 (stereo not shown) [Compound 79]
≤ 35%	E (E is ≦35%)	E (E is ≦35%)	E (E is ≦35%)	≤ 35%	≤ 35%	> 500 nM	50 to 75%	≤ 35%	< 70%	–	–	–	–	–	–	–	–	CC(=O)NC1CCC(Nc2cc3c(cn2)N(C)C(=O)c2ccccc2N3C)CC1 (stereo not shown) [Compound 98]
≤ 35%	E (E is ≦35%)	E (E is ≦35%)	E (E is ≦35%)	≤ 35%	≤ 35%	101 to 500 nM	75 to 90%	≤ 35%	70 to 85%	–	–	–	–	–	–	–	–	CN1C(=O)c2ccccc2N(C)c2cc(N[C@H]3CC[C@H](NS(C)(=O)=O)CC3)ncc21 [Compound 99]
≤ 35%	E (E is ≦35%)	E (E is ≦35%)	E (E is ≦35%)	≤ 35%	≤ 35%	> 500 nM	35 to 50%	≤ 35%	< 70%	–	–	–	–	–	–	–	–	CCOc1cc(C(=O)NC2CCC(O)CC2)ccc1Nc1cc2c(cn1)N(C)C(=O)c1ccccc1N2C (stereo not shown) [Compound 109]
